According to patent US20170283834A1, “Processes for Producing A Fermentation Product Using A Fermenting Organism” (Novozymes A/S, priority 2014, published 2017):

Key:
[1] = system: Ethanol Red™; test: Addition of acetate to ethanol fermentations (SSF of corn mash); conditions: for % change over no added acetate: glycerol
Procedure: The yeast strain tested in this experiment was Ethanol […] ). […] After a total of 30 minutes, the flasks were removed from the water bath. Total yeast concentration was determined using the YC-100 in duplicate. LactrolTM (PhibroChem) was added to each mash to a final concentration of 24 ppm. […] Approximately 5 grams of each of the resulting mashes was transferred to test tubes having a 1/64 hole drilled in the top to allow CO2 release. […] Yeast was dosed at 5×10e6 cells/g mash. Milli-Q water was added to each tube so that a total volume of liquid added (enzyme+MQ water+acid) to each tube would be equally proportionate to the mash weight. Fermentations took place in a 32° C. water bath for 54 hours. Samples were vortexed periodically (in the morning and in the evening) throughout the fermentation. […] Fermentation sampling took place after 48 and 54 hours of fermentation by sacrificing 3 tubes per treatment. […] All samples were processed without further dilution. Samples were stored at 4° C. prior to and during HPLC analysis. Samples were analyzed for sugars (DP4+, DP3, DP2, glucose, and fructose), organic acids (lactic and acetic), glycerol, and ethanol.

[2] = system: zein; test: Zein-BCA assay, temperature profile of purified protease variants; format: biochemical
Procedure: Selected variants showing good thermo-stability were purified and the purified enzymes were used in a zein-BCA assay as described below. The remaining protease activity was determined at 60° C. after incubation of the enzyme at elevated temperatures as indicated for 60 min.
Zein-BCA assay was performed to detect soluble protein quantification released from zein by variant proteases at various temperatures.
• 1) Mix 10 ul of 10 ug/ml enzyme solutions and 100 ul of 0.025% zein solution in a micro titer plate (MTP). • 2) Incubate at various temperatures for 60 min. • 3) Add 10 ul of 100% trichloroacetic acid (TCA) solution. • 4) Centrifuge MTP at 3500 rpm for 5 min. • 5) Take out 15 ul to a new MTP containing 100 ul of BCA assay solution (Pierce Cat#:23225, BCA Protein Assay Kit). • 6) Incubate for 30 min. at 60° C. • 7) Measure A562.

[3] = system: zein; test: Relative activity assay of protease variants (zein micro titer plate); format: biochemical
Method in brief: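 Yeast culture supernatants (3 days, 28 °C) incubated over 4 h or overnight on zein-agar plates (pH 4.5 acetate, 0.25 mM ZnSO4) at two temperatures. Zein turbidity read at A630; higher/lower-temperature activity ratio gives relative thermoactivity.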

CC(=O)O [Acetate, acetic acid]
Glycerol levels with added acetate [1]: reduced
48 Hour ETOH (w/v %) ([1]; Added Acetate 5 mM, 48 hours): 13.55 w/v %
48 Hour Glycerol (w/v %) ([1]; Added Acetate 5 mM, 48 hours): 1.636 w/v %
% Boost over no added acetate ([1]; Added Acetate 5 mM, 48 hours): 0.28%
54 Hour ETOH (w/v %) ([1]; Added Acetate 5 mM, 54 hours): 13.71 w/v %
54 Hour Glycerol (w/v %) ([1]; Added Acetate 5 mM, 54 hours): 1.625 w/v %
% Boost over no added acetate ([1]; Added Acetate 5 mM, 54 hours): 0.97%
48 Hour ETOH (w/v %) ([1]; Added Acetate 10 mM, 48 hours): 13.66 w/v %
48 Hour Glycerol (w/v %) ([1]; Added Acetate 10 mM, 48 hours): 1.553 w/v %
% Boost over no added acetate ([1]; Added Acetate 10 mM, 48 hours): 1.07%
54 Hour ETOH (w/v %) ([1]; Added Acetate 10 mM, 54 hours): 13.73 w/v %
54 Hour Glycerol (w/v %) ([1]; Added Acetate 10 mM, 54 hours): 1.569 w/v %
% Boost over no added acetate ([1]; Added Acetate 10 mM, 54 hours): 1.10%
48 Hour ETOH (w/v %) ([1]; Added Acetate 20 mM, 48 hours): 13.77 w/v %
48 Hour Glycerol (w/v %) ([1]; Added Acetate 20 mM, 48 hours): 1.462 w/v %
% Boost over no added acetate ([1]; Added Acetate 20 mM, 48 hours): 1.88%
54 Hour ETOH (w/v %) ([1]; Added Acetate 20 mM, 54 hours): 13.83 w/v %
54 Hour Glycerol (w/v %) ([1]; Added Acetate 20 mM, 54 hours): 1.45 w/v %
% Boost over no added acetate ([1]; Added Acetate 20 mM, 54 hours): 1.90%
48 Hour ETOH (w/v %) ([1]; Added Acetate 40 mM, 48 hours): 13.82 w/v %
48 Hour Glycerol (w/v %) ([1]; Added Acetate 40 mM, 48 hours): 1.365 w/v %
% Boost over no added acetate ([1]; Added Acetate 40 mM, 48 hours): 2.29%
54 Hour ETOH (w/v %) ([1]; Added Acetate 40 mM, 54 hours): 13.83 w/v %
54 Hour Glycerol (w/v %) ([1]; Added Acetate 40 mM, 54 hours): 1.365 w/v %
% Boost over no added acetate ([1]; Added Acetate 40 mM, 54 hours): 1.84%
48 Hour ETOH (w/v %) ([1]; Added Acetate 60 mM, 48 hours): 13.88 w/v %
48 Hour Glycerol (w/v %) ([1]; Added Acetate 60 mM, 48 hours): 1.332 w/v %
% Boost over no added acetate ([1]; Added Acetate 60 mM, 48 hours): 2.71%
54 Hour ETOH (w/v %) ([1]; Added Acetate 60 mM, 54 hours): 13.83 w/v %
54 Hour Glycerol (w/v %) ([1]; Added Acetate 60 mM, 54 hours): 1.323 w/v %
% Boost over no added acetate ([1]; Added Acetate 60 mM, 54 hours): 1.84%
48 Hour ETOH (w/v %) ([1]; Added Acetate 120 mM, 48 hours): 12.92 w/v %
48 Hour Glycerol (w/v %) ([1]; Added Acetate 120 mM, 48 hours): 1.337 w/v %
% Boost over no added acetate ([1]; Added Acetate 120 mM, 48 hours): −4.41%
54 Hour ETOH (w/v %) ([1]; Added Acetate 120 mM, 54 hours): 12.94 w/v %
54 Hour Glycerol (w/v %) ([1]; Added Acetate 120 mM, 54 hours): 1.34 w/v %
% Boost over no added acetate ([1]; Added Acetate 120 mM, 54 hours): −4.68%
% change over no added acetate ([1]; Added Acetate 5 mM, 48 hours): −4.68%
% change over no added acetate ([1]; Added Acetate 5 mM, 54 hours): −3.86%
% change over no added acetate ([1]; Added Acetate 10 mM, 48 hours): −9.53%
% change over no added acetate ([1]; Added Acetate 10 mM, 54 hours): −7.18%
% change over no added acetate ([1]; Added Acetate 20 mM, 48 hours): −14.85%
% change over no added acetate ([1]; Added Acetate 20 mM, 54 hours): −14.21%
% change over no added acetate ([1]; Added Acetate 40 mM, 48 hours): −20.48%
% change over no added acetate ([1]; Added Acetate 40 mM, 54 hours): −19.21%
% change over no added acetate ([1]; Added Acetate 60 mM, 48 hours): −22.40%
% change over no added acetate ([1]; Added Acetate 60 mM, 54 hours): −21.70%
% change over no added acetate ([1]; Added Acetate 120 mM, 48 hours): −22.09%
% change over no added acetate ([1]; Added Acetate 120 mM, 54 hours): −20.68%

B1: WT: wild type Thermoascus aurantiacus M35 metallo protease, mature peptide amino acids 1 to 177 of SEQ ID NO: 3, no substitution (protein, listed as Thermoascus aurantiacus)
chain: MRLVASLTALVALSVPVFPAAVNVKRASSYLEITLSQVSNTLIKAVVQNTGSDELSFVHLNFFKDPAPVKKVSVYRDGSEVQFEGILSRYKSTGLSRDAFTYLAPGESVEDVFDIASTYDLTSGGPVTIRTEGVVPYATANSTDIAGYISYSSNVLTIDVDGAAAATVSKAITPLDR
Bovine serum albumin equivalent peptide released ([2]; Sample incubated 60 min at 60° C.): 94 µg/mL
Bovine serum albumin equivalent peptide released ([2]; Sample incubated 60 min at 70° C.): 103 µg/mL
Bovine serum albumin equivalent peptide released ([2]; Sample incubated 60 min at 75° C.): 107 µg/mL
Bovine serum albumin equivalent peptide released ([2]; Sample incubated 60 min at 80° C.): 93 µg/mL
Bovine serum albumin equivalent peptide released ([2]; Sample incubated 60 min at 85° C.): 58 µg/mL
Bovine serum albumin equivalent peptide released ([2]; Sample incubated 60 min at 90° C.): 38 µg/mL
Relative activity 65° C./60° C. ([3]; Table 2): 31%
Relative activity 70° C./65° C. ([3]; Table 3): 59%
Relative activity 75° C./65° C. ([3]; Table 3): 17%
